ChEMBL document CHEMBL4699646, “Eleutheroside E Enhances the Long-Term Memory of Radiation-Damaged C. elegans through G-Protein-Coupled Receptor and Neuropeptide Signaling Pathways” (J Nat Prod, 2020)
Calls of active or inactive are those of the source. The rule behind the calls is not given here.

Key:
Caenorhabditis elegans [1] = assay: Memory enhancement effect in radioactive-induced Caenorhabditis elegans MY66 harboring egl-30(n686);Podr-1-mcherry::egl-30(mtIs35)] mutant assessed as memory index preincubated for 24 hrs followed by gamma-radiation treatment and measured after 24 hrs; type: functional, organism-based; settings: time 48.0 hrs
Caenorhabditis elegans [2] = assay: Inhibition of cGMP signaling pathway in radioactive-induced Caenorhabditis elegans N2 assessed as down regulation of daf-11 mRNA expression preincubated for 24 hrs followed by gamma-radiation treatment and measured after 24 hrs qRT-PCR analysis; settings: time 48.0 hrs
Caenorhabditis elegans [3] = assay: Activation of CREB in radioactive-induced Caenorhabditis elegans MY36 harboring [crh-1(tz2); Pmbr-1-mcherry::crh-1(mtIs18)] mutant assessed as increase in long-term memory preincubated for 24 hrs followed by gamma-radiation treatment and measured after 24 hrs; settings: filed as activator, time 48.0 hrs
Caenorhabditis elegans [4] = assay: Inhibition of neuropeptide pathway in radioactive-induced Caenorhabditis elegans N2 assessed as down regulation of nlp-23 mRNA expression preincubated for 24 hrs followed by gamma-radiation treatment and measured after 24 hrs qRT-PCR analysis; settings: time 48.0 hrs
Caenorhabditis elegans [5] = assay: Memory enhancement effect in Caenorhabditis elegans N2 assessed as increase in long-term memory index at 0.1 mg/ml preincubated for 24 hrs followed by gamma-radiation treatment and measured after 24 hrs; type: functional, organism-based; settings: time 48.0 hrs
Caenorhabditis elegans [6] = assay: Inhibition of neuropeptide pathway in radioactive-induced Caenorhabditis elegans N2 assessed as down regulation of nlp-5 mRNA expression preincubated for 24 hrs followed by gamma-radiation treatment and measured after 24 hrs qRT-PCR analysis; settings: time 48.0 hrs
Caenorhabditis elegans [7] = assay: Memory enhancement effect in radioactive-induced Caenorhabditis elegans harboring RNAi podr-1::unc-31 mutant assessed as memory index preincubated for 24 hrs followed by gamma-radiation treatment and measured after 24 hrs; type: functional, organism-based; settings: time 48.0 hrs
Caenorhabditis elegans [8] = assay: Protective activity against radioactive-induced Caenorhabditis elegans N2 assessed as body bends preincubated for 24 hrs followed by gamma-radiation treatment and measured after 24 hrs; type: functional, organism-based; settings: time 48.0 hrs
Caenorhabditis elegans [9] = assay: Inhibition of cGMP signaling pathway in radioactive-induced Caenorhabditis elegans N2 assessed as down regulation of tax-2 mRNA expression preincubated for 24 hrs followed by gamma-radiation treatment and measured after 24 hrs qRT-PCR analysis; settings: time 48.0 hrs
Caenorhabditis elegans [10] = assay: Memory enhancement effect in radioactive-induced Caenorhabditis elegans RB1341 harboring […] mutant assessed as memory index preincubated for 24 hrs followed by gamma-radiation treatment and measured after 24 hrs; type: functional, organism-based; settings: time 48.0 hrs
Caenorhabditis elegans [11] = assay: Memory enhancement effect in radioactive-induced Caenorhabditis elegans assessed as increase in cAMP level preincubated for 24 hrs followed by gamma-radiation treatment and measured after 24 hrs; type: functional, organism-based; settings: time 48.0 hrs
Caenorhabditis elegans [12] = assay: Activation of CREB in radioactive-induced Caenorhabditis elegans YT17 harboring crh-1(tz2) mutant assessed as reduction radiation-induced damage preincubated for 24 hrs followed by gamma-radiation treatment and measured after 24 hrs; settings: time 48.0 hrs
Caenorhabditis elegans [13] = assay: Memory enhancement effect in radioactive-induced Caenorhabditis elegans MT1434 harboring egl-30(n686) mutant assessed as memory index preincubated for 24 hrs followed by gamma-radiation treatment and measured after 24 hrs; type: functional, organism-based; settings: time 48.0 hrs
Caenorhabditis elegans [14] = assay: Protective activity against Butanone-induced Caenorhabditis elegans N2 assessed as chemotaxis index incubated for 1 hr; type: functional, organism-based
Caenorhabditis elegans [15] = assay: Inhibition of neuropeptide signaling pathway in radioactive-induced Caenorhabditis elegans N2 assessed as down regulation of npr-11 mRNA expression preincubated for 24 hrs followed by gamma-radiation treatment and measured after 24 hrs qRT-PCR analysis; settings: time 48.0 hrs
Caenorhabditis elegans [16] = assay: Memory enhancement effect in radioactive-induced Caenorhabditis elegans harboring RNAi egl8;egl-30(n686)ls(Podr-1-mcherry::egl-30) mutant assessed as memory index preincubated for 24 hrs followed by gamma-radiation treatment and measured after 24 hrs; type: functional, organism-based; settings: time 48.0 hrs
Caenorhabditis elegans [17] = assay: Inhibition of cGMP signaling pathway in radioactive-induced Caenorhabditis elegans N2 assessed as down regulation of odr-1 mRNA expression preincubated for 24 hrs followed by gamma-radiation treatment and measured after 24 hrs qRT-PCR analysis; settings: time 48.0 hrs
Caenorhabditis elegans [18] = assay: Inhibition of neuropeptide pathway in radioactive-induced Caenorhabditis elegans N2 assessed as down regulation of npr-2 mRNA expression preincubated for 24 hrs followed by gamma-radiation treatment and measured after 24 hrs qRT-PCR analysis; settings: time 48.0 hrs
Caenorhabditis elegans [19] = assay: Inhibition of Gq-alpha-coupled PLC pathway in radioactive-induced Caenorhabditis elegans N2 assessed as up regulation of goa-1 mRNA expression preincubated for 24 hrs followed by gamma-radiation treatment and measured after 24 hrs qRT-PCR analysis; settings: time 48.0 hrs
Caenorhabditis elegans [20] = assay: Inhibition of Gq-alpha-coupled PLC pathway in radioactive-induced Caenorhabditis elegans N2 assessed as down regulation of egl-30 mRNA expression preincubated for 24 hrs followed by gamma-radiation treatment and measured after 24 hrs qRT-PCR analysis; settings: time 48.0 hrs
Caenorhabditis elegans [21] = assay: Inhibition of neuropeptide pathway in radioactive-induced Caenorhabditis elegans N2 assessed as down regulation of nlp-1 mRNA expression preincubated for 24 hrs followed by gamma-radiation treatment and measured after 24 hrs qRT-PCR analysis; settings: time 48.0 hrs
Caenorhabditis elegans [22] = assay: Inhibition of Gs-apha-coupled PKA pathway in radioactive-induced Caenorhabditis elegans N2 assessed as down regulation of kin-2 mRNA expression preincubated for 24 hrs followed by gamma-radiation treatment and measured after 24 hrs qRT-PCR analysis; settings: time 48.0 hrs
Caenorhabditis elegans [23] = assay: Inhibition of cGMP signaling pathway in radioactive-induced Caenorhabditis elegans N2 assessed as down regulation of tax-4 mRNA expression preincubated for 24 hrs followed by gamma-radiation treatment and measured after 24 hrs qRT-PCR analysis; settings: time 48.0 hrs
Caenorhabditis elegans [24] = assay: Protective activity against radioactive-induced Caenorhabditis elegans N2 at 0.05 to 0.2 mg/ml preincubated for 24 hrs followed by gamma-radiation treatment and measured after 24 hrs; type: functional, organism-based; settings: dose mg/ml 0.05-0.2, time 48.0 hrs
Caenorhabditis elegans [25] = assay: Protective activity against radioactive-induced Caenorhabditis elegans N2 assessed as head thrashes preincubated for 24 hrs followed by gamma-radiation treatment and measured after 24 hrs; type: functional, organism-based; settings: time 48.0 hrs
Caenorhabditis elegans [26] = assay: Inhibition of Gq-alpha-coupled PLC pathway in radioactive-induced Caenorhabditis elegans N2 assessed as down regulation of egl-8 mRNA expression preincubated for 24 hrs followed by gamma-radiation treatment and measured after 24 hrs qRT-PCR analysis; settings: time 48.0 hrs
Caenorhabditis elegans [27] = assay: Inhibition of Gs-apha-coupled PKA pathway in radioactive-induced Caenorhabditis elegans N2 assessed as down regulation of gsa-1 mRNA expression preincubated for 24 hrs followed by gamma-radiation treatment and measured after 24 hrs qRT-PCR analysis; settings: time 48.0 hrs
Caenorhabditis elegans [28] = assay: Activation of CREB in radioactive-induced Caenorhabditis elegans YT17 harboring crh-1(tz2) mutant assessed as increase in long-term memory preincubated for 24 hrs followed by gamma-radiation treatment and measured after 24 hrs; settings: time 48.0 hrs

For COc1cc([C@H]2OC[C@@H]3[C@@H]2CO[C@H]3c2cc(OC)c(O[C@@H]3O[C@H](CO)[C@@H](O)[C@H](O)[C@H]3O)c(OC)c2)cc(OC)c1O[C@@H]1O[C@H](CO)[C@@H](O)[C@H](O)[C@H]1O, the Activity (Caenorhabditis elegans [1]) was “Active”, the inhibition (Caenorhabditis elegans [2]) was “inactive” and the Activity (Caenorhabditis elegans [3]) was “Active”. The inhibition (Caenorhabditis elegans [4]) was “Active”, the Activity (Caenorhabditis elegans [5]) was “Active” and the inhibition (Caenorhabditis elegans [6]) was “Active”. For the same compound, the Activity (Caenorhabditis elegans [7]) was “inactive”, the Activity (Caenorhabditis elegans [8]) was “inactive” and the inhibition (Caenorhabditis elegans [9]) was “inactive”. For the same compound, the Activity (Caenorhabditis elegans [10]) was “Active”, the Activity (Caenorhabditis elegans [11]) was “Active” and the Activity (Caenorhabditis elegans [12]) was “inactive”. The Activity (Caenorhabditis elegans [13]) was “inactive”, the Activity (Caenorhabditis elegans [14]) was “inactive” and the inhibition (Caenorhabditis elegans [15]) was “Active”. For the same compound, the Activity (Caenorhabditis elegans [16]) was “inactive”, the inhibition (Caenorhabditis elegans [17]) was “inactive” and the inhibition (Caenorhabditis elegans [18]) was “Active”. For the same compound, the inhibition (Caenorhabditis elegans [19]) was “Active”, the inhibition (Caenorhabditis elegans [20]) was “Active” and the inhibition (Caenorhabditis elegans [21]) was “Active”. For the same compound, the inhibition (Caenorhabditis elegans [22]) was “Active”, the inhibition (Caenorhabditis elegans [23]) was “inactive” and the Activity (Caenorhabditis elegans [24]) was “inactive”. For the same compound, the Activity (Caenorhabditis elegans [25]) was “inactive”, the inhibition (Caenorhabditis elegans [26]) was “Active” and the inhibition (Caenorhabditis elegans [27]) was “Active”. For the same compound, the Activity (Caenorhabditis elegans [28]) was “inactive”.
